Consider 11 molecules from ChEMBL document CHEMBL4811283, “New camptothecin derivatives for generalized oncological chemotherapy: Synthesis, stereochemistry and biology” (Bioorg Med Chem Lett, 2021).

One experiment concerns CCD-841CoN. Kind of experiment: Cytotoxicity against human CCD-841CoN cells assessed as inhibition of cell growth measured after 72 hrs. It counts as cell-based.
A further experiment relates to HT-29. Kind of experiment: Cytotoxicity against human HT-29 cells assessed as inhibition of cell growth measured after 72 hrs. As to conditions: HT-29, 72 h. It counts as functional, cell-based.
The next experiment concerns A549. Kind of experiment: Cytotoxicity against human A549 cells assessed as inhibition of cell growth measured after 72 hrs. It counts as functional, cell-based. As to conditions: A549, 72 h.
The next experiment deals with HL-60. Kind of experiment: Cytotoxicity against human HL-60 cells assessed as inhibition of cell growth measured after 72 hrs. As to conditions: HL-60, 72 h. It counts as functional, cell-based.
The next experiment has as its system MCF7. Kind of experiment: Cytotoxicity against human MCF7 cells assessed as inhibition of cell growth measured after 72 hrs. As to conditions: MCF7, 72 h. The class given is functional, cell-based.

The IC50 is the concentration that gives 50% inhibition.

Bounds are passed on as bounds.

Regarding `C=c1c2c(CC)c3cc(O)ccc3nc2c2cc3c(c(=O)n12)COC(=O)[C@]3(O)CC`, the IC50 in the experiment with CCD-841CoN was found to be 92.2 µM; in the experiment on HT-29, 0.15 µM; in the experiment on A549, 1.94 µM.
With `CCc1c2c(nc3ccc(O)cc13)-c1cc3c(c(=O)n1[C@H]2CN1CCCC1)COC(=O)[C@]3(O)CC`, the IC50 with HL-60 was 0.011 µM; in the experiment on MCF7 it was 0.81 µM; in the experiment with CCD-841CoN, 24.4 µM; in the experiment on HT-29, 0.598 µM; in the experiment with A549 it was 0.204 µM.
The like results for `CCc1c2c(nc3ccc(O)c(CN4CCC4)c13)-c1cc3c(c(=O)n1[C@@H]2CO)COC(=O)[C@]3(O)CC` were, in that order, 0.113 µM, 6.7 µM, over 1000 µM, 2.5 µM and 1.17 µM.
For `CCc1c2c(nc3ccc(O)cc13)-c1cc3c(c(=O)n1[C@H]2CO)COC(=O)[C@]3(O)CC`, in that order: 0.722 µM, 15.9 µM, 382 µM, 9.48 µM and 4.27 µM.
The like results for `CCc1c2c(nc3ccc(O)c(CN4CCC4)c13)-c1cc3c(c(=O)n1[C@H]2CO)COC(=O)[C@]3(O)CC` were, in that order, 0.334 µM, 11.1 µM, over 1000 µM, 6.98 µM and 5.22 µM.
As to `CCc1c2c(nc3ccc(O)c(N(C)CCO)c13)-c1cc3c(c(=O)n1C2)COC(=O)[C@]3(O)CC`, the IC50 with HL-60 came to 0.009 µM; in the experiment with MCF7 it was 1.21 µM; in the experiment with CCD-841CoN it was 36.1 µM; in the experiment on HT-29, 0.15 µM; with A549 it was 0.403 µM.
With `CCc1c2c(nc3ccc(O)c(CO)c13)-c1cc3c(c(=O)n1C2)COC(=O)[C@]3(O)CC`, the IC50 is over 1000 µM with CCD-841CoN, 0.68 µM with HT-29 and 11 µM with A549.
Turning to `CCc1c2c(nc3ccc(O)cc13)-c1cc3c(c(=O)n1[C@@H]2CO)COC(=O)[C@]3(O)CC`, the IC50 in the experiment on HL-60 is 1.89 µM; in the experiment on MCF7, 14.9 µM; with CCD-841CoN, 62 µM; with HT-29 it was 14.8 µM; with A549, 6.54 µM.
For `CCc1c2c(nc3ccc(O)cc13)-c1cc3c(c(=O)n1[C@@H]2CN1CCCC1)COC(=O)[C@]3(O)CC`, in that order: 0.007 µM, 0.906 µM, 21.8 µM, 0.493 µM and 0.272 µM.
For `CCc1c2c(nc3ccc(O)cc13)-c1cc3c(c(=O)n1C2)COC(=O)[C@]3(O)CC` [7-ETHYL-10-HYDROXYCAMPTOTHECIN], the IC50 turned out to be 0.002 µM in the experiment with HL-60; 0.66 µM in the experiment with MCF7; 4.98 µM in the experiment on CCD-841CoN; 0.02 µM in the experiment on HT-29; 0.028 µM in the experiment on A549.
For `CCc1c2c(nc3ccc(OC(=O)N4CCC(N5CCCCC5)CC4)cc13)-c1cc3c(c(=O)n1C2)COC(=O)[C@]3(O)CC` [IRINOTECAN], in that order: 4.24 µM, 14.1 µM, 90.2 µM, 6.85 µM and 26.7 µM.
